Experimental data taken from patent publication US6620828B2, “Thiazole compounds and pharmaceutical compositions for inhibiting protein kinases and methods for their use” (Agouron Pharmaceuticals, Inc., priority 1999, dated 2003).
Several values for one entry are separate records, joined by “and”; a condition that tells them apart may be missing. Identical values can stand only once. Like-named read-outs stand apart in the source and are kept apart here.

How the values were obtained:
[1] = target: CDK2/Cyclin A complex (Homo sapiens, UniProt P24941); test: CDK2/Cyclin A assay; assay type: biochemical; settings: Table 2
Outline: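 Radiometric assay: 150 nM CDK2/cyclin A (insect-cell CDK2, truncated cyclin A) phosphorylates His-tagged Rb fragment (residues 386-928) with 25 μM ATP plus [32P]ATP, pH 7.4 HEPES, 2% DMSO, 30 °C for 20 min. Filter-captured product counted by phosphorimager; apparent Ki from competitive or tight-binding inhibition fits.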

[2] = target: T1, CHK1 (Homo sapiens, UniProt O14757); test: CHK1 high-throughput screening; assay type: biochemical; settings: for % inhibition @ 20 μM: Table 4, repeated entries per example; for inhibition at 20 µM: read-out: % inhibition @ 20 μM, Table 4, repeated entries per example
T1 sequence (O14757 1-476): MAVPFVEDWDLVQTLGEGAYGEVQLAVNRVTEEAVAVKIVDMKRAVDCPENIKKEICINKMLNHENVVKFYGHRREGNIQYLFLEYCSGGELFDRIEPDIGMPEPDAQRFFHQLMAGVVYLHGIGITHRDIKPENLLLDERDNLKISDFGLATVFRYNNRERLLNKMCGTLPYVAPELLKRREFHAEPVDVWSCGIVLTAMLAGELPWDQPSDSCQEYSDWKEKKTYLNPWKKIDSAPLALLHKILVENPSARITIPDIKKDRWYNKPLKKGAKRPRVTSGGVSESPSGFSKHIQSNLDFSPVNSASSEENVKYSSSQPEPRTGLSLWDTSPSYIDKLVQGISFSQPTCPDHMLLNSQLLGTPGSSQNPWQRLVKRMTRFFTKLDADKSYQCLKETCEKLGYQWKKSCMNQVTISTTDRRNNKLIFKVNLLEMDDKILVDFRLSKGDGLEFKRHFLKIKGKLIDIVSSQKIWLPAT

[3] = target: T2, FGF-R1 (Homo sapiens, UniProt P11362, C488A/C584S/L457V); test: FGF-R spectrophotometric assay; assay type: biochemical; settings: for inhibition at 1 µM: Table 3, % inh @ 1 uM, read-out: FGF-P Ki (nM) (% inh @ 1 uM)
T2 construct: starting from the endogenous methionine residue 456 to glutamate 766; made in house; host or cells: baculovirus vector expression system
T2 sequence (P11362 456-766 L457V/C488A/C584S): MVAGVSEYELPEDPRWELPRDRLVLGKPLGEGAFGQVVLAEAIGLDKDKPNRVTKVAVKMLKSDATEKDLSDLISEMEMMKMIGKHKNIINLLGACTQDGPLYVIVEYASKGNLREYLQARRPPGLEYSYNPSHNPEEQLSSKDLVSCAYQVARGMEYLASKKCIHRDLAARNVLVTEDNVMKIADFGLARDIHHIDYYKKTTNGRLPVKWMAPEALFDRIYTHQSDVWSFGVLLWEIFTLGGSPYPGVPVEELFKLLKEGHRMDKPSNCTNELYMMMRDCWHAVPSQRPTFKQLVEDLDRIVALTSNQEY
Description: FGF-R1 Construct for Assay: The intracellular kinase domain of human FGF-R1 was expressed using the baculovirus vector expression system starting from the endogenous methionine residue 456 to glutamate 766, according to the residue numbering system of Mohammadi et al., Mol. Cell. Biol., 16, 977-989 (1996). In addition, the construct also has the following 3 amino acid substitutions: L457V, C488A, and C584S.
The spectrophotometric assay was carried out as described above for VEGF-R2, except for the following changes in concentration: FGF-R=50 nM, ATP=2 mM, and poly(E4Y1)=15 mM.

[4] = target: T3, LCK tyrosine kinase (Homo sapiens, UniProt P06239, C224D/P223M); test: LCK spectrophotometric assay; assay type: biochemical; settings: Table 3, read-out: LCK (% inh @ 1 uM)
T3 construct: starting from amino acid residue 223 to the end of the protein at residue 509; made in house; host or cells: insect cells
T3 sequence (P06239 223-509 P223M/C224D): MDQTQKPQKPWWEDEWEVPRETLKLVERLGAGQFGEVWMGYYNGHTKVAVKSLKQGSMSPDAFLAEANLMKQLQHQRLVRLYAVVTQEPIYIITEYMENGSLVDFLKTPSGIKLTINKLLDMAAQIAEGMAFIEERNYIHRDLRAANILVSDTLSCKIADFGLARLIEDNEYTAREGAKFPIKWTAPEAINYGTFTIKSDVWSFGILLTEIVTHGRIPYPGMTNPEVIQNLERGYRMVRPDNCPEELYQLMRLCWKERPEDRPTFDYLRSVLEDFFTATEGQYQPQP

[5] = target: T4, unphosphorylated VEGF-R2Δ50 (FLVK) (Homo sapiens, UniProt P35968, DEL940-989/E990V); test: VEGF-R2 coupled spectrophotometric assay, unphosphorylated enzyme (FLVK); assay type: biochemical
T4 construct: VEGF-R2Δ50 contains residues 806-939 and 990-1171; made in house; host or cells: baculovirus/insect cells
T4 sequence (P35968 with tags, fused parts or gaps DEL940-989/E990V limits assumed): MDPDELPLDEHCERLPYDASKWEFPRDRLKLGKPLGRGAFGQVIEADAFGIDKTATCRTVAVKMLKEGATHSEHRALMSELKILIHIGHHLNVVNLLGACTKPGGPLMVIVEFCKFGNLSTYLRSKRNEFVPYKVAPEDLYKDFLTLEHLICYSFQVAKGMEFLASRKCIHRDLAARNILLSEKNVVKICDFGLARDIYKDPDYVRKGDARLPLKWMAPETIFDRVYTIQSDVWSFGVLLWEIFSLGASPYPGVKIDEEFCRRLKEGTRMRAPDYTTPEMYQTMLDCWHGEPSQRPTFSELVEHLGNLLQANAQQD
Outline: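 Unphosphorylated VEGF-R2Δ50 (5 to 40 nM) with 20 mM poly(E4Y1), 3 mM ATP, 60 mM MgCl2, 2 mM MnCl2 in 200 mM Hepes pH 7.5. ADP production coupled via PK/LDH to NADH oxidation, read at 340 nm. Ki from activity at varying compound concentrations.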

[6] = target: T5, CDK4/Cyclin D3 complex (Homo sapiens, UniProt P11802); test: CDK4/Cyclin D assay; assay type: biochemical; settings: Table 2
T5 construct: made in house; host or cells: insect cells co-infected with baculovirus vectors
T5 sequence (P11802 whole entry): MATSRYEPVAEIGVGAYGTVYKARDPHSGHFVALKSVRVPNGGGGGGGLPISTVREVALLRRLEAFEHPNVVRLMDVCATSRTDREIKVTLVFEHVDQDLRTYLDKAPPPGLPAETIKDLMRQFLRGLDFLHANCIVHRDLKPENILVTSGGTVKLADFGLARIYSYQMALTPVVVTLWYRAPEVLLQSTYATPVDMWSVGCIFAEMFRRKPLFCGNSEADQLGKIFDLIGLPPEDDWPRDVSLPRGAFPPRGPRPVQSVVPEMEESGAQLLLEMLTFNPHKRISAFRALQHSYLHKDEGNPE
T5 sequence (P30281 whole entry partner): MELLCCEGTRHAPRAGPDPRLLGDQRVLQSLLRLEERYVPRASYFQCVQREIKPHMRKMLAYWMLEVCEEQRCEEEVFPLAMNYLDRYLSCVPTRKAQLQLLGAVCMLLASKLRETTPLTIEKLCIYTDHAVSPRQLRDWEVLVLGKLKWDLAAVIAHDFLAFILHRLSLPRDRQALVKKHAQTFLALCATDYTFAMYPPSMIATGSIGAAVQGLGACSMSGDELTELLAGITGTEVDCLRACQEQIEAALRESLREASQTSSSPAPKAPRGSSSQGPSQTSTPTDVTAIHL
Outline: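 Insect-cell-expressed CDK4/cyclin D3 (50 nM) phosphorylating His-tagged Rb fragment (residues 386-928) with 25 μM [^32P]ATP in HEPES pH 7.4, MgCl2, 2% DMSO; 20 min at 30 °C, EDTA stop. Filter-captured 32P by phosphorimager; apparent Ki from competitive or tight-binding inhibition fits.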

[7] = target: T6, phosphorylated VEGF-R2Δ50 (Homo sapiens, UniProt P35968, DEL940-989/E990V); test: VEGF-R2 ELISA assay; assay type: biochemical; settings: * determined with ELISA assay, read-out: FLVK-P Ki
T6 construct: VEGF-R2Δ50 contains residues 806-939 and 990-1171; made in house; host or cells: baculovirus/insect cells
T6 sequence (P35968 with tags, fused parts or gaps DEL940-989/E990V limits assumed): as the sequence (P35968 with tags, fused parts or gaps DEL940-989/E990V limits assumed) above
Outline: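 Pre-autophosphorylated human VEGF-R2Δ50 (residues 806-939/990-1171, E990V; baculovirus) at 0.8 nM was run with 2 μM biotin-gastrin(1-17), 20 μM ATP, 26 mM MgCl2, 2 mM MnCl2, pH 7.5 Hepes. Phosphopeptide was captured on streptavidin and detected by anti-pTyr-HRP/ABTS at 405 nm; Ki came from activity at varying compound concentrations.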

[8] = target: T7, phosphorylated VEGF-R2Δ50 (FLVK-P) (Homo sapiens, UniProt P35968, DEL940-989/E990V); test: VEGF-R2 coupled spectrophotometric (FLVK-P) assay; assay type: biochemical; settings: spectrophotometric assay
T7 construct: VEGF-R2Δ50 contains residues 806-939 and 990-1171; made in house; host or cells: baculovirus/insect cells
T7 sequence (P35968 with tags, fused parts or gaps DEL940-989/E990V limits assumed): as above
Outline: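 Baculovirus-expressed human VEGF-R2Δ50 (residues 806-939/990-1171, E990V) was autophosphorylated with 3 mM ATP, 40 mM MgCl2 for 2 h at 4° C. ADP formation was coupled via PK/LDH to NADH oxidation, read at 340 nm, with 5.1 mM poly(E4Y1), 1 mM ATP, 25 mM MgCl2, Hepes pH 7.5. Ki came from activity across compound concentrations.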

[9] = target: T8, FL-CHK1 (Homo sapiens, UniProt O14757); test: CHK1 assay; assay type: biochemical; settings: Table 2; at 5 (head μM)
T8 construct: C-terminally His-tagged full-length human CHK1 (FL-CHK1); 6xHis (C); made in house; host or cells: baculovirus/insect cells
T8 sequence (O14757 1-476): T1 sequence (O14757 1-476)
Outline: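 Full-length human CHK1 with C-terminal 6×His tag, made in baculovirus/insect cells, 10 nM, phosphorylating 0.125 mM Syntide-2 with 0.15 mM ATP in 50 mM Tris pH 7.5, 25 mM MgCl2, 400 mM NaCl. PK/LDH-coupled NADH oxidation read at 340 nm. Ki from initial rates over varied compound concentrations.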

[10] = system: human umbilical vein endothelial cells (HUVEC); test: HUVEC proliferation assay; assay type: cell-based; settings: Homo sapiens, HUVEC, Table 3
Outline: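 Exponentially growing HUVEC were serum-starved 24 h (F12K + 1% FBS), pre-treated 1 h with compound (0.1% DMSO final), then stimulated with 6 ng/ml VEGF. Proliferation was read 72 h later by MTT reduction (A595). IC50 came from seven 0.5-log concentrations in triplicate; screens gave % inhibition relative to VEGF-only and starved wells.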

[11] = Table 3, some entries 'Slow binder'

## Nc1nc(Nc2ccc(S(N)(=O)=O)cc2)sc1-c1nc(/C=C/c2ccc(O)cc2)cs1 [A(64), 4-{4′-Amino-4-[2-(4-hydroxy-phenyl)-vinyl]-[2,5′]bithiazolyl-2′-ylamino}-benzenesulfonamide]
[1]
  Ki: 520 nM
other
  melting point: 138 to 140 °C (dec.)
[2]
  % inhibition @ 20 μM: 1.1% and 7.2% and 8.3%

## COc1cccc(C(=O)Nc2cc(-c3noc(-c4sc(NC(=O)NCCCN5CCCC5=O)nc4N)n3)c(F)cc2F)c1 [O(2)]
[3]
  inhibition at 1 µM: 28%
[4]
  inhibition at 1 µM: 7%
[5]; [11]
  Ki: 0.33 nM

## COc1cccc(C(=O)Nc2ccc(C)c(-c3noc(-c4sc(Nc5ccccc5)nc4N)n3)c2)c1 [B(35)]
[3]
  inhibition at 1 µM: 39%
[4]
  inhibition at 1 µM: 34%
[5]; [11]
  Ki: 0.26 nM

## COc1ccc(-c2csc(-c3sc(Nc4ccc(S(N)(=O)=O)cc4)nc3N)n2)cc1 [A(2), 4-[4′-Amino-4-(4-methoxy-phenyl)-[2,5′]bithiazolyl-2′-ylamino]-benzenesulfonamide]
[6]
  Ki: 7300 nM
[1]
  Ki: 1800 nM
[7]; Table 2
  Ki: 2900 nM
other
  melting point: 195 to 198 °C
[2]
  % inhibition @ 20 μM: 2.6% and 7.6%

## Nc1nc(Nc2ccc(S(N)(=O)=O)cc2)sc1-c1nc(-c2ccccc2)cs1 [A(1), 4-(4′-Amino-4-phenyl-[2,5′]bithiazolyl-2′-ylamino)-benzenesulfonamide]
[6]
  Ki: 4600 nM
[7]; Table 2
  Ki: 1400 nM
other
  melting point: 233 to 235 °C (dec.)
[2]
  % inhibition @ 20 μM: 49.8%
  inhibition at 20 µM: 36.6%

## COc1cc(Nc2nc(N)c(-c3nc(-c4ccc(Cl)c(O)c4)cs3)s2)cc(OC)c1OC [A(22), 5-[4′-Amino-2′-(3,4,5-trimethoxy-phenylamino)-[2,5′]bithiazolyl-4-yl]-2-chloro-phenol]
[8]; Table 2
  Ki: 21 nM
[9]
  CHK-1 % inhibition @ 5: 54% @
other
  melting point: 235 to 238 °C
[2]
  inhibition at 20 µM: 7.5%

## COc1cc(Nc2nc(N)c(-c3nc(-c4cccc(N)c4)cs3)s2)cc(OC)c1OC [C(1)]
[7]; Table 1
  Ki: 300 nM
other
  melting point: 205 to 210 °C (dec.)

## Cc1sc(-c2sc(Nc3ccc(S(N)(=O)=O)cc3)nc2N)nc1-c1ccc(F)cc1 [A(14), 4-[4′-Amino-4-(4-fluoro-phenyl)-5-methyl-[2,5′]bithiazolyl-2′-ylamino]-benzenesulfonamide]
[6]
  Ki: 7000 nM
[1]
  Ki: 3100 nM
[7]; Table 2
  Ki: 1900 nM
other
  melting point: 145 to 148 °C (dec.)

## Nc1nc(Nc2ccc(S(N)(=O)=O)cc2)sc1-c1nc(/C=C/c2ccccc2)cs1 [A(63), 4-(4′-Amino-4-styryl-[2,5′]bithiazolyl-2′-ylamino)-benzenesulfonamide]
[6]
  Ki: 20000 nM
[1]
  Ki: 2000 nM
other
  melting point: 140 to 143 °C (dec.)
[2]
  % inhibition @ 20 μM: 3.8% and 5.4% and 9.8%

## Nc1nc(N)c(-c2nc(-c3cccc(NC(=O)c4ccccc4)c3)cs2)s1 [E(2), N-[3-(2 ′,4′-Diamino-[2,5′]bithiazolyl-4-yl)-phenyl]benzamide]
[8]; Table 1
  Ki: 390 nM
other
  melting point: 159 to 163 °C (dec.)
[5]; Table 1
  Ki: 38 nM

## Nc1nc(Nc2ccc(S(N)(=O)=O)cc2)sc1-c1nc(-c2cccc(O)c2)cs1 [A(16), 4-[4′-Amino-4-(3-hydroxy-phenyl)-[2,5′]bithiazolyl-2′-ylamino]-benzenesulfonamide]
[6]
  Ki: 980 nM
[1]
  Ki: 220 nM
[7]; Table 2
  Ki: 22 nM
other
  melting point: 205 to 209 °C (dec.)
[2]
  inhibition at 20 µM: 35.4%

## Nc1nc(Nc2ccc(S(N)(=O)=O)cc2)sc1-c1nc(-c2cc(-c3ccc(Cl)cc3Cl)co2)cs1 [A(28), 4-{4′-Amino-4-[4-(2,4-dichloro-phenyl)-furan-2-yl]-[2,5′]bithiazolyl-2′-ylamino}-benzenesulfonamide]
[6]
  Ki: 24000 nM
[1]
  Ki: 13000 nM
[7]; Table 2
  Ki: 131000 nM
other
  melting point: 225 to 230 °C (dec.)
[2]
  % inhibition @ 20 μM: 9.3% and 0.4%

## COCC(C)NC(=O)Nc1nc(N)c(-c2nc(-c3cc(NC(=O)c4cccc(OC)c4)c(F)cc3F)cs2)s1 (centres unmarked) [O(14), N-(5-{4′-Amino-2′-[3-(2-methoxy-1-methyl-ethyl)-ureido]-[2,5′]bithiazolyl-4-yl}-2,4-difluoro-phenyl)-3-methoxy-benzamide]
[3]
  inhibition at 1 µM: 10%
[4]
  inhibition at 1 µM: 0%
[10]
  IC50: 16 nM

## COc1cc(O)cc(-c2csc(-c3sc(Nc4cc(OC)c(OC)c(OC)c4)nc3N)n2)c1 [A(19), 3-[4′-Amino-2′-(3,4,5-trimethoxy-phenylamino)-[2,5′]bithiazolyl-4-yl]-5-methoxyphenol]
[8]; Table 2
  Ki: 4 nM
[3]; Table 2
  Ki: 390 nM
other
  melting point: 208 to 210 °C
[2]
  inhibition at 20 µM: 78.5%
